In PubChem BioAssay AID248 (DTP/NCI, 2004):
“And” between values parts separate entries of the source, which are not always exact repeats. Identical values can stand only once. Toxic doses and inconclusive results are not listed. Cut-off read from the data, not from the text of the source: active = T/C of 150% or more; inactive = T/C below 125%.

Test system: L1210 leukemia ip in BDF1 mice, survival T/C
Assay: NCI In Vivo Anticancer Drug Screen. Data for tumor model L1210 Leukemia (intraperitoneal) in B6D2F1 (BDF1) mice
Conditions: endpoint: mean survival time, higher = longer survival
How it was run: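 Read-out is survival time, reported as the treated-group measurement over the vehicle-control measurement.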

[1] = dose: 100.0 mg/kg/injection, schedule: Q01DX009 (ip), vehicle: Klucel (hydroxypropylcellulose) (HPC)
[2] = dose: 100.0 mg/kg/injection, schedule: Q04DX003 (ip), vehicle: Klucel (hydroxypropylcellulose) (HPC)
[3] = dose: 200.0 mg/kg/injection, schedule: Q01DX009 (ip), vehicle: Klucel (hydroxypropylcellulose) (HPC)
[4] = dose: 200.0 mg/kg/injection, schedule: Q04DX003 (ip), vehicle: Klucel (hydroxypropylcellulose) (HPC)
[5] = dose: 400.0 mg/kg/injection, schedule: Q01DX009 (ip), vehicle: Klucel (hydroxypropylcellulose) (HPC)
[6] = dose: 400.0 mg/kg/injection, schedule: Q04DX003 (ip), vehicle: Klucel (hydroxypropylcellulose) (HPC)
[7] = dose: 100.0 mg/kg/injection, schedule: Q01DX001 (ip), vehicle: Klucel (hydroxypropylcellulose) (HPC)
[8] = dose: 200.0 mg/kg/injection, schedule: Q01DX001 (ip), vehicle: Klucel (hydroxypropylcellulose) (HPC)
[9] = dose: 400.0 mg/kg/injection, schedule: Q01DX001 (ip), vehicle: Klucel (hydroxypropylcellulose) (HPC)
[10] = dose: 100.0 mg/kg/injection, schedule: Q01DX001 (ip), vehicle: saline
[11] = dose: 100.0 mg/kg/injection, schedule: Q01DX009 (ip), vehicle: saline with Tween-80
[12] = dose: 200.0 mg/kg/injection, schedule: Q01DX009 (ip), vehicle: saline with Tween-80
[13] = dose: 100.0 mg/kg/injection, schedule: Q04DX003 (ip), vehicle: saline with Tween-80
[14] = dose: 200.0 mg/kg/injection, schedule: Q04DX003 (ip), vehicle: saline with Tween-80
[15] = dose: 200.0 mg/kg/injection, schedule: Q01DX001 (ip), vehicle: saline
[16] = dose: 400.0 mg/kg/injection, schedule: Q01DX001 (ip), vehicle: saline

Measured: T/C

CCC(C)(O)C#CC#CC(C)(O)CC (stereo unspecified)
inactive: dose: 6.25 mg/kg/injection, schedule: Q01DX009 (ip), vehicle: saline with Tween-80 93 % of control | dose: 12.5 mg/kg/injection, schedule: Q01DX009 (ip), vehicle: saline with Tween-80 100 % of control | dose: 12.5 mg/kg/injection, schedule: Q04DX003 (ip), vehicle: saline with Tween-80 101 % of control | dose: 25.0 mg/kg/injection, schedule: Q01DX009 (ip), vehicle: saline with Tween-80 96 % of control | dose: 25.0 mg/kg/injection, schedule: Q04DX003 (ip), vehicle: saline with Tween-80 97 % of control | dose: 50.0 mg/kg/injection, schedule: Q04DX003 (ip), vehicle: saline with Tween-80 87 % of control | [1] 93 % of control | [2] 103 % of control | [3] 101 % of control | [4] 106 % of control | [5] 102 % of control | [6] 104 % of control

CN(C)C(=O)OCC[N+](C)(C)CCCCCC[N+](C)(C)CCOC(=O)N(C)C
inactive: dose: 12.0 mg/kg/injection, schedule: Q04DX003 (ip), vehicle: saline 105 % of control | dose: 25.0 mg/kg/injection, schedule: Q04DX003 (ip), vehicle: saline 96 % of control | dose: 50.0 mg/kg/injection, schedule: Q04DX003 (ip), vehicle: saline 97 % of control | dose: 75.0 mg/kg/injection, schedule: Q04DX003 (ip), vehicle: saline 92 % of control

CC(=N/N(C)c1ccccc1)/C(C)=N/N(C)c1ccccc1
inactive: dose: 5.0 mg/kg/injection, schedule: Q01DX001 (ip), vehicle: other 96 % of control | dose: 10.0 mg/kg/injection, schedule: Q01DX001 (ip), vehicle: other 102 % of control | dose: 20.0 mg/kg/injection, schedule: Q01DX001 (ip), vehicle: other 100 % of control | dose: 40.0 mg/kg/injection, schedule: Q01DX001 (ip), vehicle: other 100 % of control | dose: 80.0 mg/kg/injection, schedule: Q01DX001 (ip), vehicle: other 93 % of control

Cc1cc(=O)[nH]c(=O)n1Cc1ccccc1
inactive: [7] 117 % of control | [8] 117 % of control | [9] 122 % of control

CCOC(=O)c1cnc(SC)nc1Nc1ccc(Cl)c(Cl)c1
inactive: [7] 97 % of control | [8] 96 % of control | [9] 97 % of control

Cn1cnc([N+](=O)[O-])c1[Se]c1ncnc2c1c(C#N)cn2C1OC(CO)C(O)C1O (stereo unspecified)
inactive: dose: 6.25 mg/kg/injection, schedule: Q01DX009 (ip), vehicle: saline 111 % of control | dose: 12.5 mg/kg/injection, schedule: Q01DX005 (ip), vehicle: saline 95 % of control | dose: 12.5 mg/kg/injection, schedule: Q01DX009 (ip), vehicle: saline 113 % of control | dose: 15.0 mg/kg/injection, schedule: Q01DX009 (ip), vehicle: saline 103 % of control | dose: 25.0 mg/kg/injection, schedule: Q01DX005 (ip), vehicle: saline 111 % of control | dose: 25.0 mg/kg/injection, schedule: Q01DX009 (ip), vehicle: saline 108 % of control and 117 % of control | dose: 42.0 mg/kg/injection, schedule: Q01DX009 (ip), vehicle: saline 110 % of control

CCCC(CN(CCN(C)C)Cc1ccccc1)c1ccc(OC)cc1 (stereo unspecified)
inactive: [10] 101 % of control

COc1ccc2c(c1OC)CCCCC2=O
inactive: dose: 50.0 mg/kg/injection, schedule: Q01DX009 (ip), vehicle: saline with Tween-80 102 % of control | [11] 98 % of control | [12] 91 % of control

O=C(O)CNC(=O)/C(=C\c1[nH]c(=O)[nH]c(=O)c1Br)NC(=O)c1ccccc1
inactive: [11] 92 % of control | [13] 104 % of control | [12] 91 % of control | [14] 104 % of control | dose: 400.0 mg/kg/injection, schedule: Q01DX009 (ip), vehicle: saline with Tween-80 96 % of control | dose: 400.0 mg/kg/injection, schedule: Q04DX003 (ip), vehicle: saline with Tween-80 107 % of control

CCCCCCCCCCCCCCOc1ccc(Cc2ccccc2)cc1
inactive: [2] 91 % of control | [4] 90 % of control | [6] 88 % of control

COc1ccccc1OS(=O)(=O)c1ccc(C)cc1
inactive: dose: 50.0 mg/kg/injection, schedule: Q04DX003 (ip), vehicle: Klucel (hydroxypropylcellulose) (HPC) 105 % of control | [2] 104 % of control | [4] 105 % of control

O=C1c2cc3c(cc2CCC1N1CCOCC1)CCCC3 (stereo unspecified)
inactive: [13] 111 % of control | [14] 114 % of control

Clc1ccc(/C(=N\OC(c2ccccc2)c2ccccc2)c2ccccc2)cc1
inactive: [15] 86 % of control | [16] 87 % of control

CN(C(=O)CCCCl)c1cc([N+](=O)[O-])ccc1OCc1ccccc1
inactive: dose: 75.0 mg/kg/injection, schedule: Q01DX001 (ip), vehicle: saline 103 % of control | dose: 150.0 mg/kg/injection, schedule: Q01DX001 (ip), vehicle: saline 104 % of control | dose: 300.0 mg/kg/injection, schedule: Q01DX001 (ip), vehicle: saline 103 % of control

CCc1nc(N)nc(N)c1-c1ccc(Cl)cc1.[O]=[Zn]
inactive: dose: 15.0 mg/kg/injection, schedule: Q01DX015 (ip), vehicle: carboxymethylcellulose (CMC) 96 % of control | dose: 30.0 mg/kg/injection, schedule: Q01DX015 (ip), vehicle: carboxymethylcellulose (CMC) 96 % of control | dose: 60.0 mg/kg/injection, schedule: Q01DX015 (ip), vehicle: carboxymethylcellulose (CMC) 123 % of control | dose: 100.0 mg/kg/injection, schedule: Q01DX001 (ip), vehicle: carboxymethylcellulose (CMC) 92 % of control | dose: 120.0 mg/kg/injection, schedule: Q01DX015 (ip), vehicle: carboxymethylcellulose (CMC) 124 % of control | dose: 200.0 mg/kg/injection, schedule: Q01DX001 (ip), vehicle: carboxymethylcellulose (CMC) 93 % of control

O=C(COc1ccc(Cl)c(Cl)c1)NCc1cc[n+](Cc2ccc(S(=O)(=O)F)cc2)cc1
inactive: [7] 95 % of control | [8] 95 % of control

Cc1ccc([N+](=O)[O-])cc1NC(=O)Nc1onc(C)c1C
inactive: dose: 50.0 mg/kg/injection, schedule: Q01DX009 (ip), vehicle: Klucel (hydroxypropylcellulose) (HPC) 90 % of control | [3] 87 % of control

C[n+]1c(-c2ccc(Cl)cc2Cl)c2cc(N)ccc2c2ccccc21
inactive: dose: 3.12 mg/kg/injection, schedule: Q01DX009 (ip), vehicle: water 100 % of control | dose: 6.25 mg/kg/injection, schedule: Q01DX009 (ip), vehicle: water 91 % of control | dose: 12.5 mg/kg/injection, schedule: Q01DX009 (ip), vehicle: water 102 % of control and 105 % of control | dose: 12.5 mg/kg/injection, schedule: Q04DX003 (ip), vehicle: water 100 % of control | dose: 25.0 mg/kg/injection, schedule: Q01DX009 (ip), vehicle: water 120 % of control and 86 % of control | dose: 25.0 mg/kg/injection, schedule: Q04DX003 (ip), vehicle: water 90 % of control

c1ccc2c(C3OCC4(CCCCC4)CO3)cccc2c1
inactive: [1] 97 % of control | [2] 101 % of control | [3] 97 % of control | [4] 105 % of control | [5] 92 % of control | [6] 111 % of control

N#C/C(=C\c1ccncc1)c1cccc2ccccc12
inactive: [2] 114 % of control | [4] 96 % of control | [6] 97 % of control

CCCP(CCC)c1ccccc1
inactive: dose: 100.0 mg/kg/injection, schedule: Q01DX009 (sc), vehicle: olive oil, sesame oil, peanut oil 96 % of control | dose: 100.0 mg/kg/injection, schedule: Q04DX003 (sc), vehicle: olive oil, sesame oil, peanut oil 93 % of control | dose: 200.0 mg/kg/injection, schedule: Q01DX009 (sc), vehicle: olive oil, sesame oil, peanut oil 113 % of control | dose: 200.0 mg/kg/injection, schedule: Q04DX003 (sc), vehicle: olive oil, sesame oil, peanut oil 95 % of control | dose: 400.0 mg/kg/injection, schedule: Q01DX009 (sc), vehicle: olive oil, sesame oil, peanut oil 100 % of control | dose: 400.0 mg/kg/injection, schedule: Q04DX003 (sc), vehicle: olive oil, sesame oil, peanut oil 91 % of control

C[As+]1(N)c2ccccc2Nc2ccccc21
inactive: [10] 86 % of control | [15] 93 % of control | [16] 91 % of control
